Measured values as given in ChEMBL document CHEMBL4330173, “TRPV1 Modulators for the Treatment of Pain and Inflammation” (ACS Med Chem Lett, 2019).

Columns and labels:
[1] = target: T1, Transient receptor potential cation channel subfamily V member 1 (Rattus norvegicus, UniProt O35433); test: Agonist activity at rat TRPV1 expressed in human SH-SY5Y cells assessed as intracellular calcium accumulation by Fluo-4 NW dye based fluorescence assay; format: cell-based
[2] = target: T1, Transient receptor potential cation channel subfamily V member 1; test: Antagonist activity at rat TRPV1 expressed in human SH-SY5Y cells assessed as reduction in capsaicin-induced intracellular calcium accumulation preincubated with cells followed by capsaicin addition by Fluo-4 NW dye based fluorescence assay; format: cell-based

T1 sequence (O35433 whole entry): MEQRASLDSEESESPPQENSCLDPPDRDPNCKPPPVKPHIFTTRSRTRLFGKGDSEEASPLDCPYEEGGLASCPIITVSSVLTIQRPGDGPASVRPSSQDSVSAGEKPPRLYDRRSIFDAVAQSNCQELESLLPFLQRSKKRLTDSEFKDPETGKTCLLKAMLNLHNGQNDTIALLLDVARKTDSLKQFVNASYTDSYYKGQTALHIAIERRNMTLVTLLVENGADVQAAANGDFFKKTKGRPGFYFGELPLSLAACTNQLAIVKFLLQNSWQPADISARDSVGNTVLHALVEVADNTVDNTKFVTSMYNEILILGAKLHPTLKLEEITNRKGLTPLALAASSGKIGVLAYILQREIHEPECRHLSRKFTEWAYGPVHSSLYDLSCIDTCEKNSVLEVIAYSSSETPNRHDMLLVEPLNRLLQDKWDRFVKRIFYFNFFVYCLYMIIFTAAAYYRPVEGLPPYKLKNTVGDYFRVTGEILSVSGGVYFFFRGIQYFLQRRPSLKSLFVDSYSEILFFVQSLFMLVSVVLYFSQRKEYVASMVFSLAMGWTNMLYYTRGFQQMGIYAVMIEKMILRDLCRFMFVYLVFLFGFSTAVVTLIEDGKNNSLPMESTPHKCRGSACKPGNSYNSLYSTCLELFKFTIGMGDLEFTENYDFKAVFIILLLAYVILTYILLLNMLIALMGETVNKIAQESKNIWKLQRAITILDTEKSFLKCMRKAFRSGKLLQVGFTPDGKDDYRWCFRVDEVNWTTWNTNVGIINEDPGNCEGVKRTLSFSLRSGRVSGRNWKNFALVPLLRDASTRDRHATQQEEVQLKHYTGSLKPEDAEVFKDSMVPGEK

EC50 [1]	IC50 [2]	SMILES
15 nM	–	CC(C)=CCC/C(C)=C/CC/C(C)=C/CC/C=C(\C)CC/C=C(\C)CCC(=O)OCC(=O)NCc1ccc(O)c(O)c1
–	320 nM	COc1cc(CNC(=O)COC(=O)/C=C(\C)CCC=C(C)C)c(I)cc1O
